Columns and labels:
CDK-2 = CDK-2 (Homo sapiens, UniProt P24941); assay: CDK-2 enzyme inhibition; assay type: biochemical
[1] = system: A549 (non-small cell lung cancer) cells; assay: MTT cytotoxicity assay, A549; assay type: cell-based, human; details: Homo sapiens, A549, average ±SD of four independent experiments, read-out: IC50 ± STDEV, A549
Description: (§1) The parental MCF7 (breast cancer cell line), A549 (non-small cell lung cancer cell line), and human dermal fibroblast (HDF) (human dermal cell line) cells were obtained from the American Type Culture Collection (ATCC, Manassas, VA, United States). MCF7 and A549 cells were cultured in RPMI 1640 medium (EuroClone, Italy) supplemented with 10% (v/v) heat-inactivated fetal bovine serum (FBS) (EuroClone, Italy), 1% penicillin-streptomycin (EuroClone, Italy), and 2 mM L-glutamine.
(§2) The cytotoxic activity of the tested compounds were tested using MTT assay. […] Then, the cell viability was recored and IC50 values were calcualted. ([Mosmann, 1983]; [Nafie et al., 2020c]).

A549 cells = assay: Flow cytometry, Annexin V/PI staining; assay type: cell-based, human; details: A549, IC50 value, 48 h
Description: A549 cells were seeded into 6-well culture plates (3-5× 10^5 cells/well) and incubated overnight. […] Next, media supernatants and cells were collected and rinsed with ice-cold PBS. The cells were then suspended in the flow cytometry solutions and cells were stained with Annexin V/PI, and data was acquired using a Cytoflex FACS machine. Data were analyzed using cytExpert software. ([Hisham et al., 2019]; [Khodair et al., 2019]; [Nafie et al., 2020b]).

[2] = system: MCF-7 (breast cancer) cells; assay: MTT cytotoxicity assay, MCF-7; assay type: cell-based, human; details: Homo sapiens, MCF7, average ±SD of four independent experiments, read-out: IC50 ± STDEV, MCF-7
Description: as §1, §2

[3] = system: apoptosis-related genes in A549 cells; assay: Gene expression analysis by RT-PCR; assay type: cell-based, human; details: A549 treated at IC50; normalized to β-actin; 2^-ΔΔCT
[4] = system: HDFs (non-cancerous human dermal fibroblasts); assay: MTT cytotoxicity assay, HDFs; assay type: cell-based; details: Homo sapiens, Fibroblast, non-cancerous cells, average ±SD of four independent experiments, read-out: IC50 ± STDEV, HDFs
Description: as §1, §2

EGFR = molecular target: T1, EGFR (Homo sapiens, UniProt P00533); assay: EGFR-TK kinase assay (ADP-Glo); assay type: biochemical
T1 construct: purchased Promega V9261
T1 sequence (P00533 25-1210): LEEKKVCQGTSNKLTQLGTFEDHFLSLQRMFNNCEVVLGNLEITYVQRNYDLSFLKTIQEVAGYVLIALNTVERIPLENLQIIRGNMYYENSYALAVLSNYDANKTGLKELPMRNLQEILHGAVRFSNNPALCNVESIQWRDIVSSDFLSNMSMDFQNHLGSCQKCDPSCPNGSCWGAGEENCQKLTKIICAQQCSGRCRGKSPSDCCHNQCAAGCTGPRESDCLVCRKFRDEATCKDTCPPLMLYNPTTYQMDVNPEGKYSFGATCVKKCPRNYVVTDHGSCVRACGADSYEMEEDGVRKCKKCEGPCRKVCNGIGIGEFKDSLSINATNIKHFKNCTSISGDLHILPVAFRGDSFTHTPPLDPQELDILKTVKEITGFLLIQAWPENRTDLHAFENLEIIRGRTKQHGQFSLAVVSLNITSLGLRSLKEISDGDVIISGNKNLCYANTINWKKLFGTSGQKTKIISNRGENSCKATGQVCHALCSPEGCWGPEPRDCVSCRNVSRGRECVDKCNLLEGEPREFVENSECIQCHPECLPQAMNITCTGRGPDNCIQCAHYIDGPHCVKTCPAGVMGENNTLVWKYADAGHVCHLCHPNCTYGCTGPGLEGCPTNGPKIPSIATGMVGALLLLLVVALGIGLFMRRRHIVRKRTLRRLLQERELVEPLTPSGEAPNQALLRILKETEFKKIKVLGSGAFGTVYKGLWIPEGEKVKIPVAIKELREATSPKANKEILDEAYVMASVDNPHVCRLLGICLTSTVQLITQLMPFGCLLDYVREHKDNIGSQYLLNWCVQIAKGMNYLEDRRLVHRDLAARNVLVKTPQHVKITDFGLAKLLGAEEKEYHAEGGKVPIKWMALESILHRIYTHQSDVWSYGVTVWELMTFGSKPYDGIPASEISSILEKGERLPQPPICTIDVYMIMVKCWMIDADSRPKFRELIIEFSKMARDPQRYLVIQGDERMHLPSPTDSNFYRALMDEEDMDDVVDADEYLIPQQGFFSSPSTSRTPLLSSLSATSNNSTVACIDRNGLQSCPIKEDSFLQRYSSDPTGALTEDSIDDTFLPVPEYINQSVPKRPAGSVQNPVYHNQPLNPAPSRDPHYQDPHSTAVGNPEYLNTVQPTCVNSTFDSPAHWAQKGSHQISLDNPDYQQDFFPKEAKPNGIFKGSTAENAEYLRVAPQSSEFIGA
Description: EGFR-TK assay kit (ADP-Glo™ kinase assay, Cat No. V9261, Promega, United States) kinase assay was performed to evaluate the capacity of 3h, 3i, and 3j to inhibit EGFR.

5-HT7R = molecular target: 5-HT7R; parameters: method as in Kułaga et al., 2020; details: ref Kułaga et al., 2020; read-out: Ki, 5-HT7 receptors; cited from earlier work
CDK1 = system: CDK1; parameters: method as in Kumar et al., 2019; details: Figure 1; ref Kumar et al., 2019; read-out: CDK-inhibitor IC50, CDK1; cited from earlier work
CDK4 = system: CDK4; parameters: method as in Kumar et al., 2019; details: Figure 1; ref Kumar et al., 2019; read-out: CDK-inhibitor IC50, CDK4; cited from earlier work
CDK2-A = system: CDK2-A; parameters: method as in Kumar et al., 2019; details: Figure 1; ref Kumar et al., 2019; read-out: CDK-inhibitor IC50, CDK2-A; cited from earlier work
CDK6 = system: CDK6; parameters: method as in Kumar et al., 2019; details: Figure 1; ref Kumar et al., 2019; read-out: CDK-inhibitor IC50, CDK6; cited from earlier work

Nc1cc(-c2c[nH]c3ccccc23)nn1-c1nc(Nc2ccc(Cl)cc2)nc(N2CCOCC2)n1 [Compound 3i, 4-(5-Amino-3-(1H-indol-3-yl)-1H-pyrazol-1-yl)-N-(4-chlorophenyl)-6-morpholino-1,3,5-triazin-2-amine]
IC50 (CDK-2; Mean ± SD of three independent replicates): 108 ± 3.12 nM
inhibition at 10 µM (CDK-2; at 10 µM): 91.4%
IC50 [1]: 2400 ± 640 nM
cells undergoing late apoptosis (A549 cells; control 0.16%): 19.5%
cells undergoing early apoptosis (A549 cells; control 0.42%): 24.2%
total apoptosis (A549 cells; control 0.61%): 43.7%
total apoptotic cell death, fold vs control (A549 cells; control 0.61%): 71.6 fold
necrosis-mediated cell death (A549 cells; control 0.97%): 4.08%
necrosis-mediated cell death, fold increase (A549 cells; control 0.97%): 4.2 fold
IC50 [2]: 3280 ± 160 nM
Bax gene expression, fold of change [3]: 3.56 fold
Bcl-2 gene expression, fold change [3]: 0.23 fold
P53 gene expression, fold of change [3]: 4.55 fold
caspase 3 gene expression, fold of change [3]: 6.96 fold
caspase 8 gene expression, fold of change [3]: 1.49 fold
caspase 9 gene expression, fold of change [3]: 7 fold
IC50 [4]: 3780 ± 550 nM
IC50 (EGFR; Mean ± SD of three independent replicates, read-out: EGFR inhibition IC50): 34.1 ± 1.58 nM
inhibition at 10 µM (EGFR; at 10 µM): 93.6%

Nc1nc(NCCOc2ccccc2)nc(NCCc2c[nH]c3ccccc23)n1 [XIV]
Ki (5-HT7R): < 60 nM

OCCCNc1cncc(-c2ncnc(Nc3cccc(Cl)c3)n2)c1 [XVII]
IC50 (CDK1): 60 nM

OCCCNc1cc(-c2ncnc(Nc3cccc(Cl)c3)n2)ccn1 [XVI]
IC50 (CDK4): 308 nM
IC50 (CDK1): 21 nM
IC50 (CDK2-A): 7 nM
IC50 (CDK6): 356 nM

COc1nc(NCCc2c[nH]c3ccccc23)nc(Nc2ccc3[nH]ncc3c2)n1 [XV]
Ki (5-HT7R): < 60 nM

Reference: article PMC9732672, “Pyrazolyl-s-triazine with indole motif as a novel of epidermal growth factor receptor/cyclin-dependent kinase 2 dual inhibitors” (Frontiers in Chemistry, 2022)
